Measurements as given in US20100004128A1, “HERBICIDAL ISOXAZOLINE COMPOUNDS” (SYNGENTA CROP PROTECTION, INC., priority 2006, published 2010).

Tests used:
[1] = system: Monocotyledonous and dicotyledonous test plants; assay: Herbicidal action, application pre-emergence; type: in vivo; set-up: key: 10=total damage to plant; 0=no damage to plant; details: spray solution 1000 mg/l, scale 0-10; for Herbicidal action (damage score) AGSTE: Agrostis tenius; for Herbicidal action (damage score) AMARE: Amaranthus retroflexus; for Herbicidal action (damage score) DIGSA: Digitaria sanguinalis; for Herbicidal action (damage score) POATR: Poa trivialis; for Herbicidal action (damage score) SETIT: Setaria italica; for Herbicidal action (damage score) SETFA: Setaria faberi
Procedure: Monocotyledonous and dicotyledonous test plants were sown in sterilised standard soil in seed trays each having 96 cells. After one day (pre-emergence) or after 8 to 9 days cultivation (post-emergence) under controlled conditions in a climatic chamber (cultivation at 23/17° C., day/night; 13 hours light; 50-60% humidity; after application at 24/19° C., day/night), the plants were treated with an aqueous spray solution of 1000 mg/l of the active ingredient used (incl. 10% DMSO as solvent). The plants were grown on in the climatic chamber until the test was evaluated (10=total damage to plant, 0=no damage to plant) after 9 or 13 days.

Structure (SMILES)	Herbicidal action (damage score) AGSTE [1]	Herbicidal action (damage score) AMARE [1]	Herbicidal action (damage score) DIGSA [1]	Herbicidal action (damage score) POATR [1]	Herbicidal action (damage score) SETIT [1]	melting point	Herbicidal action (damage score) SETFA [1]
Cn1nc(CF)c(C(F)(F)S(=O)(=O)C2=NOC(C)(C)C2)n1 [Compound No. 1.01, 4-[(5,5-dimethyl-4,5-dihydro-isoxazole-3-sulfonyl)-difluoro-methyl]-5-fluoromethyl-2-methyl-2H-[1,2,3]triazole]	10	10	10	10	10	54 °C	–
Cn1nc(CF)c(C(F)(Cl)S(=O)(=O)C2=NOC(C)(C)C2)n1 (stereo not drawn) [Compound No. 1.03, 4-[chloro-(5,5-dimethyl-4,5-dihydro-isoxazole-3-sulfonyl)-fluoro-methyl]-5-fluoromethyl-2-methyl-2H-[1,2,3]triazole]	10	8	10	10	9	80 °C	–
Cc1nn(C)nc1C(F)(F)S(=O)(=O)C1=NOC(C)(C)C1 [Compound No. 1.05]	10	10	10	10	10	–	–
Cc1nn(C)nc1C(F)(F)[S+]([O-])C1=NOC(C)(C)C1 (stereo not drawn) [Compound No. 1.08, 4-[(5,5-dimethyl-4,5-dihydro-isoxazole-3-sulfinyl)-difluoro-methyl]-2,5-dimethyl-2H-1,2,31-triazole]	10	10	10	10	–	–	9
CC1(C)CC(S(=O)(=O)C(F)c2cn(C(C)(C)C)nn2)=NO1 (stereo not drawn) [Compound No. 2.01]	10	3	9	0	–	–	9
Cn1nnc(C(F)(F)F)c1C(F)S(=O)(=O)C1=NOC(C)(C)C1 (stereo not drawn) [Compound No. 3.01]	10	5	10	10	8	–	–
Cn1nnc(C(F)(F)F)c1C(F)(F)[S+]([O-])C1=NOC(C)(C)C1 (stereo not drawn) [Compound No. 3.03]	10	10	9	10	–	–	8
Cn1nnc(Br)c1C(F)(F)S(=O)(=O)C1=NOC(C)(C)C1 [Compound No. 3.04]	10	10	9	10	–	–	9
